Assay [1] deals with T1, Tyramine receptor (TyrR) (Drosophila melanogaster, UniProt P22270).
T1 construct: expressed in transfected cells
T1 sequence (P22270 27-601): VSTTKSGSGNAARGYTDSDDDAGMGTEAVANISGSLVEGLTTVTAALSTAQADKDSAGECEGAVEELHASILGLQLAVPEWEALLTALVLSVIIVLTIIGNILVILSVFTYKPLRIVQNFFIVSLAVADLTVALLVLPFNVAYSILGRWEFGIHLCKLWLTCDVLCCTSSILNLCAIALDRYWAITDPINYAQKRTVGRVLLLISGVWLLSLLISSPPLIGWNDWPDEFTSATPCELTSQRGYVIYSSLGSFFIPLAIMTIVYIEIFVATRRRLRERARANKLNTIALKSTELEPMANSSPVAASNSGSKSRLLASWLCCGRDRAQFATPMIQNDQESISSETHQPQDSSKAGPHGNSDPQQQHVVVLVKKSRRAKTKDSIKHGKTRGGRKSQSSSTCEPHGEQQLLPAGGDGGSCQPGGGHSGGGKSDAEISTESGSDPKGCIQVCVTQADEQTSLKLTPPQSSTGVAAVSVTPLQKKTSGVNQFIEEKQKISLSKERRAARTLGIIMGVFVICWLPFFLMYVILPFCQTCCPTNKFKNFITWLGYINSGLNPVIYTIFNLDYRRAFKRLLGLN
Briefly: Effect on intracellular cAMP in cells expressing TyrR (Example 14). It is filed as cell-based.

Assay [2] has as its target T1, Tyramine receptor (TyrR). The assay can be described thus: Effect on intracellular Ca2+ in cells expressing TyrR (Example 14). The class given is cell-based.
Assay [3] relates to Hymenolepis nana. The assay can be described thus: H. nana in vivo, infected mice treated orally with single test agents Rx (Example 1). To be noted: 400 mg/kg orally daily for 5 days.
Assay [4] has as its target T1, Tyramine receptor (TyrR). The assay can be described thus: Tyramine receptor binding affinity in cells expressing TyrR (Example 14).

As for `C=CCc1ccc(O)c(OC)c1` [Eugenol], the “Effects Intracellular cAMP (Yes or No)” value in assay [1] is given as “No”. Moreover, the “Effects Intracellular Ca2+ (Yes or No)” value in assay [2] is listed as “Yes”.

In the case of `Cc1ccc(C(C)C)cc1O` [Rx 4, carvacrol], in assay [3], the “Egg Count (X ± SD), During Treatment 1st Day” value amounted to 5 ± 0.6 and the “Egg Count (X ± SD), During Treatment 3rd Day” value is on record as 1 ± 1.9.

Regarding `CC(C)=CCC/C(C)=C/CO` [Rx 5, geraniol], the “Effects Intracellular cAMP (Yes or No)” value in assay [1] is “Yes”. Moreover, the “Effects Intracellular Ca2+ (Yes or No)” value in assay [2] was “Yes”. In assay [3], the “Egg Count (X ± SD), During Treatment 1st Day” value is recorded as 14 ± 13.9.

`CC12CCC(CC1)C(C)(C)O2` [Rx 6, cineol]: in assay [1], the “Effects Intracellular cAMP (Yes or No)” value is “Yes”. Besides, in assay [2], the “Effects Intracellular Ca2+ (Yes or No)” value is given as “Yes”. In assay [3], the “Egg Count (X ± SD), During Treatment 1st Day” value is reported as 5 ± 9.5 and the “Egg Count (X ± SD), During Treatment 3rd Day” value amounted to 1 ± 1.2.

In the case of `CC=Cc1ccc(OC)cc1` [anethole], the “Effects Intracellular cAMP (Yes or No)” value in assay [1] was “Yes”. In assay [2], the “Effects Intracellular Ca2+ (Yes or No)” value is “Yes”. In assay [4], the “Tyramine Receptor Binding Affinity (High or Low)” value was “Low”.

In the case of `OCc1ccccc1` [benzyl alcohol], the “Effects Intracellular cAMP (Yes or No)” value in assay [1] is on record as “Yes”. Further, in assay [2], the “Effects Intracellular Ca2+ (Yes or No)” value was “No”.

As for `OCC=Cc1ccccc1` [cinnamyl alcohol], the “Effects Intracellular cAMP (Yes or No)” value in assay [1] is listed as “No”. The “Effects Intracellular Ca2+ (Yes or No)” value in assay [2] is reported as “Yes”.

With `C=C(C)[C@H]1CC=C(C)CC1` [d-limonene], the “Effects Intracellular cAMP (Yes or No)” value in assay [1] is “Yes and No”. Also, the “Effects Intracellular Ca2+ (Yes or No)” value in assay [2] is listed as “Yes”.

For `C=CC(C)(O)CCC=C(C)C` (stereo not shown) [linalool], the “Effects Intracellular cAMP (Yes or No)” value in assay [1] is “No”. The “Effects Intracellular Ca2+ (Yes or No)” value in assay [2] is reported as “Yes”. For the same compound, the “Tyramine Receptor Binding Affinity (High or Low)” value in assay [4] is on record as “high”.

With `Cc1ccc(C(C)C)cc1` [p-cymene], the “Effects Intracellular cAMP (Yes or No)” value in assay [1] was “Yes”. The “Effects Intracellular Ca2+ (Yes or No)” value in assay [2] is reported as “Yes”. Besides, the “Tyramine Receptor Binding Affinity (High or Low)” value in assay [4] was “low”.

In the case of `CCC(=O)OCCc1ccccc1` [phenethyl proprionate], the “Effects Intracellular cAMP (Yes or No)” value in assay [1] was “Yes”. Besides, in assay [2], the “Effects Intracellular Ca2+ (Yes or No)” value is given as “No”.

With `CCCCCCCCCCCCOS(=O)(=O)[O-].[Na+]` [sodium lauryl sulfate], the “Effects Intracellular cAMP (Yes or No)” value in assay [1] is “No”. In assay [2], the “Effects Intracellular Ca2+ (Yes or No)” value is given as “No”.

`CCC(C)(O)CCCC(C)C` (stereo not shown) [tetrahydrolinalool]: in assay [1], the “Effects Intracellular cAMP (Yes or No)” value is reported as “Yes”. Also, the “Effects Intracellular Ca2+ (Yes or No)” value in assay [2] is recorded as “Yes”.

For `Cc1ccc(C(C)C)c(O)c1` [thymol], the “Effects Intracellular cAMP (Yes or No)” value in assay [1] is on record as “No”. Moreover, the “Effects Intracellular Ca2+ (Yes or No)” value in assay [2] is on record as “Yes”. Besides, the “Tyramine Receptor Binding Affinity (High or Low)” value in assay [4] was “high”.

On to `CC1=CCC2CC1C2(C)C` (stereo not drawn) [α-pinene], for which the “Effects Intracellular cAMP (Yes or No)” value in assay [1] was “No”. Besides, the “Effects Intracellular Ca2+ (Yes or No)” value in assay [2] is “No”.
